Laboratory results taken from paper PMC9317443 (Viruses, 2022).
Where two headings read alike, the source gives them in different places.

Assays:
CHIKV replicon = assay: CHIKV replicon-based assay (GLuc activity in BHK-21-GLuc-nsP-CHIKV-99659 cells); details: for inhibition at 10 µM: read-out: GLuc Inhibition; for EC50: read-out: EC50 (concentration required to inhibit 50% of the GLuc activity), 48 h; for SI (CC50/EC50): replicon-based assay
[1] = MTT cytotoxicity / cell viability in CHIKV replicon cells; details: hamster, BHK-21-GLuc-nsP-CHIKV-99659 cells (CHIKV replicon cells)
BHK-21 cells = assay: Cell viability in the viral infection assay; assay type: cell-based
CHIKV-nanoluc = assay: Viral infection assay with CHIKV-nanoluc in BHK-21 cells; assay type: cell-based, Chikungunya virus; details: MOI 0.1, 16 h.p.i., read-out: EC50 (CHIKV-nanoluc replication)
[2] = test system: BHK-21-GLuc-nsP-CHIKV-99659 cells; assay: MTT cytotoxicity / cell viability in CHIKV replicon cells; details: CHIKV replicon cells, 48 h, MTT assay; for CC50: read-out: CC50 (50% cytotoxicity)
[3] = cited from earlier work
[4] = Cell viability in the viral infection assay; assay type: cell-based; details: hamster, BHK-21 cells infected with CHIKV-nanoluc
[5] = test system: replication-transcription complex (RTC); details: cited from earlier work
[6] = CHIKV replicon cells, GLuc signal from supernatant

C[C@@H](c1nc(-c2ccc(C#N)cc2)cs1)[C@](O)(Cn1cncn1)c1ccc(F)cc1F [Ravuconazole]
inhibition at 10 µM (CHIKV replicon; Chikungunya virus): 25.4%
viability at 10 µM [1]: 100%

Clc1ccc(C(Cn2ccnc2)OCc2ccsc2Cl)c(Cl)c1 (stereo not shown) [Tioconazole]
inhibition at 10 µM (CHIKV replicon; Chikungunya virus): 54.8%
viability at 10 µM [1]: 68.4%

CC(=O)N1CCN(c2ccc(OCC3COC(Cn4ccnc4)(c4ccc(Cl)cc4Cl)O3)cc2)CC1 (stereo not shown) [Ketoconazole]
inhibition at 10 µM (CHIKV replicon; Chikungunya virus): 0%
viability at 10 µM [1]: 100%

C[C@H](C(N)=O)N1CCCC[C@@H]1c1ccc(OCc2cccc(F)c2)cc1 [MMV676270]
CC50 (BHK-21 cells): 59.5 µM
EC50 (CHIKV-nanoluc): 18.4 ± 5 µM
EC50 (CHIKV replicon; [6]): 5.2 ± 1 µM
SI (CC50/EC50) (CHIKV replicon): 10
CC50 (50% cytotoxicity) [2]: moderate toxicities
CC50 [2]: 52 ± 20 µM

C[C@@H](c1nc(-c2ccc(C#N)cc2)cs1)[C@](O)(Cn1cncn1)c1cc(F)ccc1F [Isavuconazole]
inhibition at 10 µM (CHIKV replicon; Chikungunya virus): 28.6%
viability at 10 µM [1]: 100%

C[C@@H](c1ncncc1F)[C@](O)(Cn1cncn1)c1ccc(F)cc1F [Voriconazole]
inhibition at 10 µM (CHIKV replicon; Chikungunya virus): 13.9%
viability at 10 µM [1]: 91.8%

CC[C@@H]([C@H](C)O)n1ncn(-c2ccc(N3CCN(c4ccc(OC[C@@H]5CO[C@@](Cn6cncn6)(c6ccc(F)cc6F)C5)cc4)CC3)cc2)c1=O [Posaconazole]
no toxic effects up to concentration [3]: > 100 µM
inhibition at 10 µM (CHIKV replicon; Chikungunya virus): 11.8%
viability at 10 µM [1]: 100%

CC[C@@]1(O)C(=O)OCc2c1cc1n(c2=O)Cc2cc3c([N+](=O)[O-])cccc3nc2-1 [Rubitecan, rubitecan]
CC50 at 16 h [4]: > 100 µM
EC50 (CHIKV-nanoluc; Chikungunya virus): 3.6 ± 0.8 µM
EC50 (CHIKV replicon; Chikungunya virus): 0.14 ± 0.03 µM
SI (CC50/EC50) (CHIKV replicon): > 714
CC50 at 48 h [1]: > 100 µM

Cc1ccc(C(=O)Nc2ccc(S(=O)(=O)O)c3cc(S(=O)(=O)O)cc(S(=O)(=O)O)c23)cc1NC(=O)c1cccc(NC(=O)Nc2cccc(C(=O)Nc3cc(C(=O)Nc4ccc(S(=O)(=O)O)c5cc(S(=O)(=O)O)cc(S(=O)(=O)O)c45)ccc3C)c2)c1 [suramin]
EC50 (CHIKV replicon; Chikungunya virus): 3.2 ± 0.3 µM
EC50 [5]: 6.7 µM
CC50 at 48 h [1]: > 50 µM

CCC(C)n1ncn(-c2ccc(N3CCN(c4ccc(OCC5COC(Cn6cncn6)(c6ccc(Cl)cc6Cl)O5)cc4)CC3)cc2)c1=O (stereo not shown) [Itraconazole, itraconazole]
CC50 at 16 h [4]: > 100 µM
EC50 (CHIKV-nanoluc; Chikungunya virus): 0.34 ± 0.02 µM
EC50 (CHIKV replicon; Chikungunya virus): 0.32 ± 0.2 µM
SI (CC50/EC50) (CHIKV replicon): > 312
CC50 at 48 h [1]: > 100 µM

Clc1ccc(COC(Cn2ccnc2)c2ccc(Cl)cc2Cl)cc1 (stereo not shown) [Econazole]
inhibition at 10 µM (CHIKV replicon; Chikungunya virus): 43.8%
viability at 10 µM [1]: 81.8%

Clc1ccc(COC(Cn2ccnc2)c2ccc(Cl)cc2Cl)c(Cl)c1 (stereo not shown) [Miconazole]
inhibition at 10 µM (CHIKV replicon; Chikungunya virus): 27.8%
viability at 10 µM [1]: 100%

Clc1ccccc1C(c1ccccc1)(c1ccccc1)n1ccnc1 [Clotrimazole]
inhibition at 10 µM (CHIKV replicon; Chikungunya virus): 70.7%
viability at 10 µM [1]: 70.2%

OC(Cn1cncn1)(Cn1cncn1)c1ccc(F)cc1F [Fluconazole]
inhibition at 10 µM (CHIKV replicon; Chikungunya virus): 0%
viability at 10 µM [1]: 94.3%

O=C(N[C@@H]1CCCc2c1[nH]c1ccc(Cl)cc21)c1ccccn1 [GSK-983]
CC50 (BHK-21 cells): > 100 µM
EC50 (CHIKV-nanoluc): 13.8 ± 3.3 µM
EC50 (CHIKV replicon; [6]): 0.33 ± 0.2 µM
SI (CC50/EC50) (CHIKV replicon): 30
CC50 (50% cytotoxicity) [2]: moderate toxicities
CC50 [2]: 10 ± 0.07 µM
